Assay results reported in patent US4367237A, “Prostacyclin analogues” (priority 1978, dated 1983).
Structures can show the parent of a compound that is named as a salt.

What was measured:
diarrhoea = assay: Diarrhoea (Diarrhoea-producing activity); format: in vivo; settings: diarrhoea in 50% of mice, oral
From the text: (§1) The results of standard laboratory tests are shown below in Table 1, wherein the various activities are shown relative to PGE1.
The compounds produce diarrhoea in 50% of mice by oral administration.

[1] = system: women two or three days before the expected date of menstruation; assay: Clinical: beginning of menstruation; format: in vivo, human
Experimental: One pessary containing 1 mg of (13E)-(6RS,9α,11α,15S)-6,9-epithio-11,15-dihydroxyprost-13-enoic acid methyl ester (prepared as described in Example 21) was administered vaginally one to five times at one- to three-hour intervals to fifteen women aged from twenty to forty years two or three days before the expected date of menstruation.
One pessary containing 0.5 mg of (13E)-(6RS,9α,11α,15R)-6,9-epithio-11,15-dihydroxy-16,16-dimethylprost-13-enoic acid methyl ester (prepared as described in Example 21) was administered vaginally one to three times at one- to three-hour intervals to three women aged twenty or twenty-one years two or three days before the expected date of menstruation.
One to three tablets containing 0.5 mg of (13E)-(6RS,9α,11α,15S)-6,9-epithio-11,15-dihydroxyprost-13-enoic acid methyl ester (prepared as described in Example 17) were administered orally to five women aged from twenty to twenty-two years two or three days before the expected date of menstruation.

uterine contraction = assay: UCA (Uterine contraction activity); format: in vivo, pregnant female rat; settings: for UCA (Uterine contraction activity), relative to PGE1: pregnant female rat, intravenous, 20th day of gestation
From the text: as §1
The compounds stimulate uterine contraction in the pregnant female rat when administered intravenously on the 20th day of gestation.
Moreover, other compounds of the present invention [prepared as hereafter described in the Examples] other than the above compounds for which results are given in Table 1 stimulate uterine contraction when administered intravenously to the pregnant female rat on the 20th day of gestation at doses of 0.2-100 μg/kg animal body weight.

[2] = system: women in the expired stage of pregnancy; assay: Clinical: induction of labour; format: in vivo, human; settings: pessary 0.2 mg, vaginal, one to three times at one- to three-hour intervals; five women
Experimental: One pessary containing 0.2 mg of (13E)-(6RS,9α,11α,15S)-6,9-epithio-11,15-dihydroxyprost-13-enoic acid methyl ester (prepared as described in Example 21) was administered vaginally one to three times at one- to three-hour intervals to five women aged from twenty to forty years in the expired stage of pregnancy.

[3] = LD50 (Acute toxicity tests); settings: mouse, in vivo, iv; injected intravenously into mice
Experimental: The compounds are injected intravenously into mice.

[4] = system: isolated cat coronary artery; settings: J.C.S. Chem. Comm., 375 (1978); cited from earlier work
blood pressure = assay: BP (Hypotensive activity); format: in vivo; settings: intravenous, allobarbital-anaesthetised dog
From the text: as §1
The compounds produce falls in blood pressure when administered intravenously to the allobarbital-anaesthetised dog.

gastric acid secretion = assay: GSI (Inhibitory activity on gastric acid secretion); format: in vivo; settings: increase in gastric acid pH from 2.0-2.5 to at least 4.0 in 50% of pentagastrin-treated rats, perfused intravenously
From the text: as §1
The compounds produce an increase in gastric acid pH from 2.0-2.5 to at least 4.0 in 50% of pentagastrin-treated rats when perfused intravenously.

stress ulceration = assay: GUI (Inhibitory activity on gastric ulceration), stress ulceration; format: in vivo, rat; settings: stress ulceration of rats, oral, water bath 19° C. for 6 hours
Experimental: as §1
The compounds produce an inhibition of stress ulceration by oral administration in the stress ulceration of rats produced according to the method of Takagi and Okabe [Jap. J. Pharmc., 18, 9-18 (1968)], i.e. by soaking rats in a water bath at 19° C. for 6 hours.

[5] = system: platelet-rich plasma of rats; assay: PAI (Inhibitory activity on blood platelet aggregation), adenosine diphosphate-induced; format: cell-based, rat; settings: 50% inhibition of ADP-induced aggregation
[6] = system: women in the early stages of pregnancy; assay: Clinical: termination of pregnancy; format: in vivo, human
Experimental: One pessary containing 1 mg of (13E)-(6RS,9α,11α,15S)-6,9-epithio-11,15-dihydroxyprost-13-enoic acid methyl ester (prepared as described in Example 21) was administered vaginally two to five times at one- to three-hour intervals to fifteen women aged from twenty to forty years in the early stages of pregnancy.
One to three tablets containing 0.25 mg of (13E)-(6RS,9α,11α,15R)-6,9-epithio-11,15-dihydroxy-16,16-dimethylprost-13-enoic acid methyl ester (prepared as described in Example 17) were administered orally one to five times to seven women aged from twenty-five to thirty years in the early stages of pregnancy.

[7] = system: human blood platelet aggregation; settings: J.C.S. Chem. Comm., 375 (1978); cited from earlier work
artery = settings: cited from earlier work
[8] = system: blood platelet aggregation of the human; settings: cited from earlier work
blood platelets = settings: cited from earlier work

For `CCCCC[C@H](O)/C=C/[C@@H]1[C@H]2CC(CCCCC(=O)OC)S[C@H]2C[C@H]1O` (mixture of isomers) [A, (13E)-(6RS,9α,11α,15S)-6,9-epithio-11,15-dihydroxyprost-13-enoic acid methyl ester], the “Diarrhoea (Diarrhoea-producing activity), relative to PGE1” value (from here on “Diarrhoea … relative to PGE1”) (diarrhoea) was 0.072, the beginning of menstruation ([1]; one to three tablets 0.5 mg, oral, five women) was “confirmed in all the cases” and the beginning of menstruation ([1]; pessary 1 mg, vaginal, one to five times, fifteen women) was “confirmed in all the cases”. For the same molecule, the “UCA (Uterine contraction activity), relative to PGE1” value (“UCA … relative to PGE1” for short) (uterine contraction) was 11.5, the induction of labour [2] was “confirmed in all the cases” and the LD50 [3] was 100 mg/kg. For the same molecule, the “activity on isolated cat coronary artery” value [4] was “vasoconstricting activity on isolated cat coronary artery”, the “BP (Hypotensive activity), relative to PGE1” value (shortened to “BP … relative to PGE1”) (blood pressure) was 0.2 and the “GSI (Inhibitory activity on gastric acid secretion), relative to PGE1” value (gastric acid secretion) was under 0.1. For the same molecule, the “GUI (Inhibitory activity on gastric ulceration), relative to PGE1” value (stress ulceration) was under 0.5, the “PAI (Inhibitory activity on blood platelet aggregation), relative to PGE1” value [5] was 0.03 and the termination of pregnancy ([6]; pessary 1 mg, vaginal, two to five times, fifteen women) was “confirmed in all the cases”. The “activity on human blood platelet aggregation” value [7] was “inhibitory activity on human blood platelet aggregation”.
With `CCCCC[C@H](O)/C=C/[C@@H]1[C@H]2CC(CCCCC(=O)O)S[C@H]2C[C@H]1O` (mixture of isomers) [B, (13E)-(6RS,9α,11α,15S)-6,9-epithio-11,15-dihydroxyprost-13-enoic acid] the “Diarrhoea … relative to PGE1” value (diarrhoea) was under 0.1, the “stimulatory activity on uterine contraction (in words)” value (uterine contraction; rat, in vivo) was “selective strong stimulatory activity on uterine contraction” and the “UCA … relative to PGE1” value (uterine contraction) was 10. The “activity on isolated cat coronary artery” value [4] was “vasoconstricting activity on isolated cat coronary artery”, the “BP … relative to PGE1” value (blood pressure) was 0.2 and the “GSI (Inhibitory activity on gastric acid secretion), relative to PGE1” value (gastric acid secretion) was under 0.1. The “GUI (Inhibitory activity on gastric ulceration), relative to PGE1” value (stress ulceration) was under 0.5, the “PAI (Inhibitory activity on blood platelet aggregation), relative to PGE1” value [5] was 0.038 and the “activity on human blood platelet aggregation” value [7] was “inhibitory activity on human blood platelet aggregation”.
With `CCCCC(C)(C)[C@H](O)/C=C/[C@@H]1[C@H]2CC(CCCCC(=O)OC)S[C@H]2C[C@H]1O` (mixture of isomers) [D, (13E)-(6RS,9α,11α,15R)-6,9-epithio-11,15-dihydroxy-16,16-dimethylprost-13-enoic acid methyl ester] the “Diarrhoea … relative to PGE1” value (diarrhoea) was 0.095, the beginning of menstruation ([1]; pessary 0.5 mg, vaginal, one to three times, three women) was “confirmed in all the cases” and the “UCA … relative to PGE1” value (uterine contraction) was 23.1. The LD50 [3] was 25 mg/kg, the “BP … relative to PGE1” value (blood pressure) was under 0.1 and the “GSI (Inhibitory activity on gastric acid secretion), relative to PGE1” value (gastric acid secretion) was under 0.3. The “GUI (Inhibitory activity on gastric ulceration), relative to PGE1” value (stress ulceration) was under 0.5, the “PAI (Inhibitory activity on blood platelet aggregation), relative to PGE1” value [5] was 0.006 and the termination of pregnancy ([6]; one to three tablets 0.25 mg, oral, one to five times, seven women) was “confirmed in all the cases”.
In the case of `CCCC[C@H](C)[C@H](O)/C=C/[C@@H]1[C@H]2CC(CCCCC(=O)OC)S[C@H]2C[C@H]1O` (mixture of isomers) [E, (13E)-(6RS,9α,11α,15S,16S)-6,9-epithio-11,15-dihydroxy-16-methylprost-13-enoic acid methyl ester], the “Diarrhoea … relative to PGE1” value (diarrhoea) is reported as 0.514, the “UCA … relative to PGE1” value (uterine contraction) is reported as 27.3 and the “BP … relative to PGE1” value (blood pressure) is reported as 0.55. For the same molecule, the “GSI (Inhibitory activity on gastric acid secretion), relative to PGE1” value (gastric acid secretion) was under 0.3, the “GUI (Inhibitory activity on gastric ulceration), relative to PGE1” value (stress ulceration) was under 0.5 and the “PAI (Inhibitory activity on blood platelet aggregation), relative to PGE1” value [5] was 0.21.
In the case of `CCCCC1([C@H](O)/C=C/[C@@H]2[C@H]3CC(CCCCC(=O)OC)S[C@H]3C[C@H]2O)CCC1` (stereo partly drawn) [C, (13E)-(6RS,9α,11α,15R)-6,9-epithio-11,15-dihydroxy-15-(1-butylcyclobutyl)-16,17,18,19,20-pentanorprost-13-enoic acid methyl ester], the “Diarrhoea … relative to PGE1” value (diarrhoea) is reported as under 0.02, the “UCA … relative to PGE1” value (uterine contraction) is reported as 15.8 and the LD50 [3] is reported as 100 mg/kg. For the same molecule, the “BP … relative to PGE1” value (blood pressure) was under 0.1, the “GSI (Inhibitory activity on gastric acid secretion), relative to PGE1” value (gastric acid secretion) was 0.3 and the “GUI (Inhibitory activity on gastric ulceration), relative to PGE1” value (stress ulceration) was under 0.5. For the same molecule, the “PAI (Inhibitory activity on blood platelet aggregation), relative to PGE1” value [5] was 0.011.
With `CCCCC[C@H](O)/C=C/[C@H]1[C@H](O)CC(=O)[C@@H]1CCCCCCC(=O)O` [PGE1, reference compound] the “Diarrhoea … relative to PGE1” value (diarrhoea) was 1, the “UCA … relative to PGE1” value (uterine contraction) was 1 and the “BP … relative to PGE1” value (blood pressure) was 1. For the same molecule, the “GSI (Inhibitory activity on gastric acid secretion), relative to PGE1” value (gastric acid secretion) was 1.
In the case of `CCCCC[C@H](O)/C=C/[C@@H]1[C@H]2C/C(=C/CCCC(=O)OC)O[C@H]2C[C@H]1O` [PGI2 methyl ester, reference compound], the “Diarrhoea … relative to PGE1” value (diarrhoea) is reported as under 0.1, the “UCA … relative to PGE1” value (uterine contraction) is reported as 0.5 and the “BP … relative to PGE1” value (blood pressure) is reported as 20. For the same molecule, the “PAI (Inhibitory activity on blood platelet aggregation), relative to PGE1” value [5] was 85.
In the case of `CCCCC[C@H](O)/C=C/[C@@H]1[C@H]2C/C(=C/CCCC(=O)O)O[C@H]2C[C@H]1O` [PGI2, (5Z,13E)-(9α,11α,15S)-6,9-epoxy-11,15-dihydroxyprosta-5,13-dienoic acid], the “activity on the artery” value (artery) is listed as “relaxing activity on the artery” and the “inhibition of arachidonic acid-induced blood platelet aggregation” value [8] is listed as “strongly inhibits”.
For `CCCCC[C@H](O)/C=C/[C@@H]1[C@H]2CC(CCCCC(=O)O)S[C@H]2C[C@H]1O` (stereo partly shown) [sodium salt], the “activity on isolated cat coronary artery” value [4] is listed as “vasoconstricting activity on isolated cat coronary artery” and the “activity on human blood platelet aggregation” value [7] is listed as “inhibitory activity on human blood platelet aggregation”.
In the case of `CCCCC[C@H](O)/C=C/[C@H]1O[C@H]2C[C@H](O2)[C@@H]1C/C=C\CCCC(=O)O` [thromboxane A2], the “activity on the artery” value (artery) is listed as “contracting activity on the artery” and the “activity on blood platelets” value (blood platelets) is listed as “aggregating activity on blood platelets”.
